These results are taken from ChEMBL document CHEMBL4732061, “Synthesis, binding, and functional properties of tetrahydroisoquinolino-2-alkyl phenones as selective σR/TMEM97 ligands” (Eur J Med Chem, 2021).

As a reminder, the Ki is a measure of affinity in units of concentration, obtained from inhibition or displacement. Read a low Ki as tighter binding. By IC50 is commonly meant the midpoint of a concentration-inhibition curve.

Structures are written as SMILES. Active and inactive are the calls of the source. The calls are words filed in the database; no cut-off is given here.

A short description of data set [1]: Selectivity ratio of Ki for displacement of [3H](+)-pentazocine from sigma 1 receptor in guinea pig brain membranes to Ki for displacement of [125I]-RHM-4 from sigma2 receptor in rat liver membranes. The class given is cell membranes. Background: In a radioligand displacement assay an active substance lowers the binding of a labelled ligand.
For data set [2], the target named is T1, Sigma intracellular receptor 2 (Rattus norvegicus, UniProt Q5U3Y7).
T1 sequence (Q5U3Y7 whole entry): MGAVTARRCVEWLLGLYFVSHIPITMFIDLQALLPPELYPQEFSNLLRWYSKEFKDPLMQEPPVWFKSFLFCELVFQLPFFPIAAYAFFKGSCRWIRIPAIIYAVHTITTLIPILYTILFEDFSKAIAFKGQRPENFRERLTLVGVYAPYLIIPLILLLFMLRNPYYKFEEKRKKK
Put plainly: Displacement of [125I]-RHM-4 from sigma 2 receptor in rat liver membranes after 120 mins by microbeta scintillation counting method. The class given is cell membranes, Membrane.

Data set [3] addresses Sigma non-opioid intracellular receptor 1 (Cavia porcellus, UniProt Q60492). Kind of data set: Displacement of [3H](+)-pentazocine from sigma 1 receptor in guinea pig brain membranes after 120 mins by microbeta scintillation counting method. The class given is cell membranes, Membrane.
The target of data set [4] is Sigma intracellular receptor 2 (Homo sapiens) (UniProt Q5BJF2). Put plainly: Antagonist activity at sigma 2 receptor in human MCF7 cells assessed as reduction in intracellular calcium release at 30 uM incubated for 3 hrs by Fluo-3 AM dye based confocal laser scanning microscopy. The class given is cell-based. The settings on record: filed as antagonist. Background: A change in cytosolic calcium serves as a functional read-out for many receptors and channels.
Sigma intracellular receptor 2 (Homo sapiens), sequence (Q5BJF2 whole entry): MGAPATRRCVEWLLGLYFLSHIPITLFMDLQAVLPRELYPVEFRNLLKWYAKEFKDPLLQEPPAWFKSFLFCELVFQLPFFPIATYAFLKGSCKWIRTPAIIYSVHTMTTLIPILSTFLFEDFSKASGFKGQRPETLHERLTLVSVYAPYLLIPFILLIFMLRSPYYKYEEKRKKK

Data set [5] deals with MCF-10A. Kind of data set: Cytotoxicity against human MCF-10A cells assessed as reduction in cell viability at 1 to 100 uM incubated for 24 to 48 hrs by CCK-8 assay. It is filed as cell-based. The settings on record: dose lower 1 µM, time lower 24 hrs, dose upper 100 µM, time upper 48 hrs. Background: Tetrazolium assays rely on reduction of a dye to a coloured formazan, in cell work by metabolically active cells.

Data set [6] concerns MCF-10A. Kind of data set: Cytotoxicity against human MCF-10A cells assessed as reduction in cell viability incubated for 24 to 48 hrs by CCK-8 assay. It is filed as cell-based.
For data set [7], the system named is MCF7. Put plainly: Cytotoxicity against human MCF7 cells assessed as reduction in cell viability incubated for 24 to 48 hrs by CCK-8 assay. It is filed as functional, cell-based.
For data set [8], the system named is MCF7. Kind of data set: Cytotoxicity against human MCF7 cells assessed as reduction in cell viability at 1 to 100 uM incubated for 24 to 48 hrs by CCK-8 assay. It is filed as functional, cell-based. The settings on record: dose 1-100 µM, time 24-48 hrs.
Data set [9] relates to MCF7. Put plainly: Cytotoxicity against human MCF7 cells assessed as reduction in cell viability incubated for 48 hrs by CCK-8 assay. It is filed as functional, cell-based. The settings on record: MCF7, 48 h.
Data set [10] has as its system MCF-10A. Kind of data set: Cytotoxicity against human MCF-10A cells assessed as reduction in cell viability incubated for 48 hrs by CCK-8 assay. The class given is cell-based.
For data set [11], the system named is MCF7. Put plainly: Cytotoxicity against human MCF7 cells assessed as reduction in cell viability incubated for 24 hrs by CCK-8 assay. The class given is functional, cell-based.
The subject of data set [12] is MCF-10A. Put plainly: Cytotoxicity against human MCF-10A cells assessed as reduction in cell viability incubated for 24 hrs by CCK-8 assay. It is filed as cell-based.
Another data set concerns MDA-MB-231. Put plainly: Cytotoxicity against human MDA-MB-231 cells assessed as reduction in cell viability incubated for 24 to 48 hrs in presence of cisplatin by CCK-8 assay. The class given is functional, cell-based. The settings on record: time 24-48 hrs.
The next data set deals with HepG2. Put plainly: Cytotoxicity against human HepG2 cells assessed as reduction in cell viability incubated for 24 to 48 hrs in presence of cisplatin by CCK-8 assay. The settings on record: time 24-48 hrs. It is filed as functional, cell-based.
Data set [13] has as its system MCF7. Kind of data set: Cytotoxicity against human MCF7 cells assessed as reduction in cell viability incubated for 24 to 48 hrs in presence of cisplatin by CCK-8 assay. It is filed as functional, cell-based. The conditions noted are these: time 24-48 hrs.
For the next data set, the system named is KYSE-140. Kind of data set: Cytotoxicity against human KYSE-140 cells assessed as reduction in cell viability incubated for 24 to 48 hrs in presence of cisplatin by CCK-8 assay. It is filed as functional, cell-based. The settings on record: time 24-48 hrs.
Data set [14] addresses Sigma intracellular receptor 2 (Homo sapiens) (UniProt Q5BJF2). Put plainly: Agonist activity at sigma 2 receptor in human MCF7 cells assessed as stimulation of intracellular calcium release at 10 uM incubated for 3 hrs by Fluo-3 AM dye based confocal laser scanning microscopy. It is filed as cell-based. The conditions noted are these: filed as agonist.
[15] abbreviates: Homo sapiens, MCF7, 24 h, read-out: IC50.
Where [16] appears, read: Homo sapiens, MCF-10A, 24 h, read-out: IC50.

Sigma non-opioid intracellular receptor 1, sequence (Q60492 whole entry): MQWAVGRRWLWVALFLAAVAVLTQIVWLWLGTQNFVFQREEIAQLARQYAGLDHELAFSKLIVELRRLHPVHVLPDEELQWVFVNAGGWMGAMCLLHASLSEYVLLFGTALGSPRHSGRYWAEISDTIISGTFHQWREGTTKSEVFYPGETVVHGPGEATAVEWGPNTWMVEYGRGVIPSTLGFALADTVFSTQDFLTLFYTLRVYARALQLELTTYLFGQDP

For `COc1cc2c(c(OC)c1OC)CN(CCCCCC(=O)c1c(C)c(OC)c(OC)c(OC)c1OC)CC2`, in data set [1], the Ratio Ki was over 79. The Ki in data set [2] was 0.0126 µM; in data set [3], over 1 µM.

Regarding `COc1cc2c(c(OC)c1OC)CN(CCCC(=O)c1c(C)c(OC)c(OC)c(OC)c1OC)CC2`, the Ki in [2] and in data set [3] was over 1 µM each time.

For the compound `COc1cc2c(c(OC)c1OC)CCN(CCCCCC(=O)c1c(C)c(OC)c(OC)c(OC)c1OC)C2`, the Ratio Ki in [1] was over 50. The Ki in data set [2] is 0.0197 µM; in data set [3] it was over 1 µM.

Consider `COc1cc2c(c(OC)c1OC)CCN(CCCCC(=O)c1c(C)c(OC)c(OC)c(OC)c1OC)C2`, for which, in data set [1], the Ratio Ki was over 29. Further, the results for the Ki in [2] and in [3] were 0.0342 µM and over 1 µM, respectively.

In the case of `COc1cc2c(c(OC)c1OC)CCN(CCCCCCC(=O)c1c(C)c(OC)c(OC)c(OC)c1OC)C2`, the Ratio Ki in data set [1] was over 24. Also, the Ki was 0.04 µM in data set [2] and over 1 µM in [3].

Consider `COc1cc2c(cc1OC)CN(CCCC(=O)c1c(C)c(OC)c(OC)c(OC)c1OC)CC2`, for which the result in data set [4] was Active. Moreover, the Activity entry in the data set on MCF-10A [5] was “Non-Toxic”. Also, the figures for the Ki in data set [2] and in [3] were 0.0051 µM and over 1 µM, respectively. Also, the IC50 with MCF-10A [6] and in the data set on MCF7 [7] was over 100 µM each time. The outcome in the data set with MCF7 [8] was inactive.

`COc1cc2c(c(OC)c1OC)CN(CCCCCCC(=O)c1c(C)c(OC)c(OC)c(OC)c1OC)CC2`: the IC50 in the data set on MCF7 [9] was 39.7 µM; in the data set with MCF-10A [10], 23.5 µM; with MCF7 [11] (mcf7), “Not Active”; in the data set on MCF-10A [12] (mcf-10a), “Not Active”. The Ki in [2] and in data set [3] was over 1 µM in each case.

On to `COc1cc2c(c(OC)c1OC)CCN(CCCC(=O)c1c(C)c(OC)c(OC)c(OC)c1OC)C2`, for which the Ratio Ki in data set [1] is over 24. Further, the Ki in data set [2] was 0.0418 µM; in data set [3], over 1 µM.

For `COc1cc2c(cc1OC)CN(CCC(=O)c1c(C)c(OC)c(OC)c(OC)c1OC)CC2`, the IC50 in the data set on MCF7 [9] stood at 8.09 µM; with MCF-10A [10] it was 9.77 µM; in the data set on MCF7 [11] (setting [15]), 11.5 µM; in the data set on MCF-10A [12] (setting [16]) it was 11.9 µM. Also, the result in the data set on MDA-MB-231, in the data set with HepG2, in the data set on MCF7 [13] and in the data set on KYSE-140 was Active. Further, the Ki in [2] amounted to 0.956 µM; in data set [3], 3.19 µM.

Take `COc1cc2c(cc1OC)CN(CCCCNC(=O)c1cc(C)ccc1OC)CC2`: in data set [4], the result was Active.

Consider `Fc1ccc(-n2cc(CCCCN3CCC4(CC3)OCc3ccccc34)c3ccccc32)cc1`, for which the result in [14] was Active.

Turning to `COc1cc2c(c(OC)c1OC)CN(CCCCC(=O)c1c(C)c(OC)c(OC)c(OC)c1OC)CC2`, the Ratio Ki in data set [1] is over 44. For the same compound, the Ki in [2] is 0.0224 µM; in data set [3], over 1 µM.

`COc1cc2c(c(OC)c1OC)CCN(CCC(=O)c1c(C)c(OC)c(OC)c(OC)c1OC)C2`: the Ki in [2] was 11.5 µM; in data set [3], over 1 µM.

As for `COc1cc2c(cc1OC)CN(CCCCCCC(=O)c1c(C)c(OC)c(OC)c(OC)c1OC)CC2`, the IC50 with MCF7 [9] amounted to 51.1 µM; with MCF-10A [10], 32.3 µM; in the data set with MCF7 [11] (setting [15]), 70.7 µM; with MCF-10A [12] (setting [16]) it was 54.2 µM. Besides, the result in data set [4] was Active. Further, the Ki in [2] is 0.00133 µM; in [3], over 1 µM.

For the compound `COc1cc2c(cc1OC)CN(CCCCCC(=O)c1c(C)c(OC)c(OC)c(OC)c1OC)CC2`, the result in [4] was Active. Besides, the Activity entry with MCF-10A [5] is “Non-Toxic”. Moreover, the Ki in [2] was 0.00038 µM; in data set [3], over 1 µM. The IC50 with MCF-10A [6] and in the data set with MCF7 [7] was over 100 µM in each case. For the same compound, in the data set on MCF7 [8], the outcome was inactive.

In the case of `COc1cc2c(c(OC)c1OC)CN(CCC(=O)c1c(C)c(OC)c(OC)c(OC)c1OC)CC2`, the IC50 with MCF7 [9] amounted to 19.7 µM; in the data set with MCF-10A [10], 27.4 µM; with MCF7 [11] (setting [15]) it was 25.5 µM; in the data set on MCF-10A [12] (setting [16]) it was 45.9 µM. For the same compound, the Ki was 3.18 µM in [2] and over 1 µM in [3].

Consider `COc1cc2c(cc1OC)CN(CCCCC(=O)c1c(C)c(OC)c(OC)c(OC)c1OC)CC2`, for which the outcome in data set [4] was Active. Further, the Activity result with MCF-10A [5] is on record as “Non-Toxic”. Also, the results for the Ki in data set [2] and in data set [3] were 0.003 µM and 0.16 µM, respectively. The IC50 with MCF-10A [6] and in the data set on MCF7 [7] was over 100 µM throughout. Besides, in the data set on MCF7 [8], the outcome was inactive.
